Like-named read-outs stand apart in the source and are kept apart here.
Legend:
AChE (from electric eel) = biological target: T1, AChE (from electric eel) (Electrophorus electricus, UniProt O42275); assay: biochemical; conditions: means ± SD of three experiments; read-out: IC50 eeAChE
T1 construct: Acetylcholinesterase (E.C. 3.1.1.7) from electric eel and human erythrocytes; purchased Sigma-Aldrich (St. Louis, MO); host or cells: electric eel (natural source)

[1] = biological target: T2, BuChE (from equine serum) (Equus caballus, UniProt P81908); assay: biochemical; assay type: biochemical; conditions: for IC50: means ± SD of three experiments
T2 construct: butyrylcholinesterase (BuChE, E.C. 3.1.1.8) from equine serum and human serum; purchased Sigma-Aldrich (St. Louis, MO); host or cells: equine serum
T2 sequence (P81908 whole entry): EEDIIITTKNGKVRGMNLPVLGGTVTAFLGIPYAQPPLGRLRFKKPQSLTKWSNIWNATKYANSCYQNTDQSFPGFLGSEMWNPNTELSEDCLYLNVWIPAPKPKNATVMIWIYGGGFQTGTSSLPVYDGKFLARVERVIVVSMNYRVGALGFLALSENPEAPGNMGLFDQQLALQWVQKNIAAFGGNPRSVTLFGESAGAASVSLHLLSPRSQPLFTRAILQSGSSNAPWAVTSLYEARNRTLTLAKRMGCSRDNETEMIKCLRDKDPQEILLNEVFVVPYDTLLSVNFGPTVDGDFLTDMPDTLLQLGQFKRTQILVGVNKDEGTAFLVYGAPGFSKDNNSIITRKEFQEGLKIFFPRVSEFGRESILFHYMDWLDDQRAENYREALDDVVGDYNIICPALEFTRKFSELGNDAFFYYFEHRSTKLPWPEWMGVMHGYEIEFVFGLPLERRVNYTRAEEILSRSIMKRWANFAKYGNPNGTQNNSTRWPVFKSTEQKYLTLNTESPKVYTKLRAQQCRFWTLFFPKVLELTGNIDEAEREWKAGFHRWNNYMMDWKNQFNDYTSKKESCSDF

Aβ (1–42) [2] = biological target: T3, Aβ (1–42) (Homo sapiens, UniProt P05067); assay: Inhibition of Aβ (1–42) self-induced aggregation (Thioflavin T assay); conditions: read-out: Aβ (1–42) aggregation inhibition (%)
T3 sequence (P05067 672-713): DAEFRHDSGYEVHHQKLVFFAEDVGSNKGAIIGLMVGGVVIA

human AChE = biological target: T4, human AChE (Homo sapiens, UniProt P22303); assay: biochemical; conditions: means ± SD of three experiments; read-out: IC50 hAChE
T4 construct: Acetylcholinesterase (E.C. 3.1.1.7) from electric eel and human erythrocytes; purchased Sigma-Aldrich (St. Louis, MO); host or cells: human erythrocytes
T4 sequence (P22303 other isoform, or with tags, fused parts or gaps): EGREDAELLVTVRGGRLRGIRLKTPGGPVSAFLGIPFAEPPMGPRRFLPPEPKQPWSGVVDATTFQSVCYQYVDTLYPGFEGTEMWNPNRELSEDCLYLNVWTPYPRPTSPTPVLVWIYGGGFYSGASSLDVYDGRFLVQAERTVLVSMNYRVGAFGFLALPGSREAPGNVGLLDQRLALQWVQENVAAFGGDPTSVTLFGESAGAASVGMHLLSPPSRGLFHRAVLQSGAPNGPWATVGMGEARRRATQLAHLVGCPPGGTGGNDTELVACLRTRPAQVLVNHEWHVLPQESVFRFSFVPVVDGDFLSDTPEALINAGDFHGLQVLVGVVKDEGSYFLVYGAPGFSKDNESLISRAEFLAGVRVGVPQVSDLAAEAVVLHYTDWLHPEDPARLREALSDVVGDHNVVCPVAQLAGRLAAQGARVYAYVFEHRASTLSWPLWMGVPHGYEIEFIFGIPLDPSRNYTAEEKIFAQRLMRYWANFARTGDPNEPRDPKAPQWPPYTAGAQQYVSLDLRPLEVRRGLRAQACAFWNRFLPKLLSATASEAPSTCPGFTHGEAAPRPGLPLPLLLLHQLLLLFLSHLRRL

AChE = conditions: cited from earlier work
Aβ (1–42) [3] = biological target: T3, Aβ (1–42); assay: Inhibition of Cu^2+-induced Aβ (1–42) aggregation (ThT assay); assay type: biochemical; conditions: Aβ 25 μM, compound 50 μM, Cu^2+ 25 μM, 37 °C, 24 h; read-out: Inhibition of Cu^2+-induced Aβ aggregation
Experimental: The mixture of the peptide (10 μL, 25 μM, final concentration) with or without copper (10 μL, 25 μM, final concentration) and the test compound (10 μL, 50 μM, final concentration) were incubated at 37 °C for 24 h. The 20 μL of the sample was diluted to a final volume of 200 μL with […] glycine–NaOH buffer (pH 8.0) containing ThT (5 μM). The detection method was the same as that of self-induced Aβ aggregation experiment.

in vitro = assay: in vitro; parameters: Papp at 16 h: dose or concentration left out as unconfirmed; conditions: PAMPA
Experimental: Commercial drugs were purchased from Sigma (St. Louis, MO) and Alfa Aesar (Haverhill, MA). The porcine brain lipid (PBL) was obtained from Avanti Polar Lipids (Alabaster, AL). The donor microplate (PVDF membrane, pore size […]) and the acceptor microplate were both from Millipore (Darmstadt, Germany). The 96-well UV plate (COSTAR^@) was from Corning Incorporated (Harrodsburg, KY). The acceptor 96-well microplate was filled with 300 μL of PBS/EtOH (7:3), and the filter membrane was impregnated with 4 μL of PBL in dodecane (20 mg/mL). […] The […] was carefully placed on the donor plate to form a sandwich, which was left undisturbed for 16 h at 25 °C. After incubation, the donor plate was carefully removed and the concentration of compound in the acceptor wells was determined using an UV plate reader (Flexstation^@ 3). Every sample was analyzed at five wavelengths, in four wells, in at least three independent runs, and the results are given as the mean ± SD. In each experiment, nine quality control standards of known BBB permeability were included to validate the analysis set.

T1 sequence (O42275 24-633): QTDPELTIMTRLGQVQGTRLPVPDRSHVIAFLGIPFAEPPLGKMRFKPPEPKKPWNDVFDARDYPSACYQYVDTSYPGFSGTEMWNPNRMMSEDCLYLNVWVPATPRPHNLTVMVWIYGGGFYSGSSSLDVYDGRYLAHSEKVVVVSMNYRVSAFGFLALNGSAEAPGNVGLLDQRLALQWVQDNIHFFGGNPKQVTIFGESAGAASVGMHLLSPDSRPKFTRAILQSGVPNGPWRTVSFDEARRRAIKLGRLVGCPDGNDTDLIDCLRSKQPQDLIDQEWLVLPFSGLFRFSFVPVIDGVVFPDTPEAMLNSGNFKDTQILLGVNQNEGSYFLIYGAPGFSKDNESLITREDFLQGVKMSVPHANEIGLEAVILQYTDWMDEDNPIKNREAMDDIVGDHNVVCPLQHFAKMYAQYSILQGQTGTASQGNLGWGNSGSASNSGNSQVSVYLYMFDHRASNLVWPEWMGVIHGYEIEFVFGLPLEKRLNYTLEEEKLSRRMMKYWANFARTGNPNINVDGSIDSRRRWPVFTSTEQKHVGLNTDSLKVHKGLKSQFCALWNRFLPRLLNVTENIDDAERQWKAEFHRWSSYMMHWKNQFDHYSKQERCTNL

With `O=C(C=Cc1ccccc1)Nc1cc[n+](Cc2cccc(Br)c2)cc1.[Br-]` [Compound 5f, 1-(3-Bromobenzyl)-4-cinnamamidopyridin-1-ium bromide] the IC50 (AChE (from electric eel)) was 0.154 ± 0.0026 µM, the IC50 ([1]; IC50 eqBuChE) was 2.5 ± 0.3 µM and the “ABTS assay (trolox equiv)” value was “N (N means <0.05)”. For the same compound, the inhibition at 20 µM (Aβ (1–42) [2]) was 48.8 ± 2.1%.

With `O=C(C=Cc1ccccc1)Nc1cc[n+](Cc2ccc(F)cc2)cc1.[Br-]` [Compound 5e, 4-Cinnamamido-1-(4-fluorobenzyl) pyridin-1-ium bromide] the IC50 (AChE (from electric eel)) was 0.0908 ± 0.0092 µM, the IC50 ([1]; IC50 eqBuChE) was 10 ± 0.4 µM and the “ABTS assay (trolox equiv)” value was “N (N means <0.05)”. The inhibition at 20 µM (Aβ (1–42) [2]) was 52.8 ± 1.8%.

`COc1ccc(/C=C/C(=O)Nc2cc[n+](Cc3cccc(Br)c3)cc2)cc1OC.[Br-]` [Compound 5m, (E)-1-(3-bromobenzyl)-4-(3-(3,4-dimethoxyphenyl)acrylamido) pyridin-1-ium bromide] showed an IC50 (AChE (from electric eel)) of 0.0926 ± 0.009 µM, an IC50 ([1]; IC50 eqBuChE) of 2.5 ± 0.6 µM and an IC50 (human AChE) of 0.0794 ± 0.0015 µM. For the same compound, the “ABTS assay (trolox equiv)” value was “N (N means <0.05)” and the inhibition at 20 µM (Aβ (1–42) [2]) was 62.8 ± 1.4%.

In the case of `COc1ccc(/C=C/C(=O)Nc2cc[n+](Cc3cccc(C)c3)cc2)cc1OC.[Br-]` [Compound 5i, (E)-4-(3-(3,4-dimethoxyphenyl)acrylamido)-1-(3-methylbenzyl) pyridin-1-ium bromide], the IC50 ([1]; IC50 eqBuChE) is reported as 2.7 ± 0.8 µM, the IC50 (human AChE) is reported as 0.0437 ± 0.0005 µM and the “ABTS assay (trolox equiv)” value is reported as “N (N means <0.05)”. The inhibition at 20 µM (Aβ (1–42) [2]) was 53.9 ± 0.9%.

`COc1cc(/C=C/C(=O)CC(=O)/C=C/c2ccc(O)c(OC)c2)ccc1O` [Curcumin, reference compound] gave an inhibition at 20 µM (Aβ (1–42) [2]) of 54.6 ± 2.6%.

In the case of `[Br-].c1ccc(C[n+]2ccccc2)cc1` [benzyl pyridinium bromide], the AChE inhibition (AChE) is listed as “micromolar range”.

Compound `COc1ccc(/C=C/C(=O)Nc2cc[n+](Cc3cccc(F)c3)cc2)cc1OC.[Br-]` [Compound 5k, (E)-4-(3-(3,4-dimethoxyphenyl)acrylamido)-1-(3-fluorobenzyl) pyridin-1-ium bromide] has an IC50 (AChE (from electric eel)) of 0.0206 ± 0.001 µM, an IC50 ([1]; IC50 eqBuChE) of 3.1 ± 0.5 µM and an IC50 (human AChE) of 0.0192 ± 0.0016 µM. For the same compound, the “ABTS assay (trolox equiv)” value was “N (N means <0.05)” and the inhibition at 20 µM (Aβ (1–42) [2]) was 65.6 ± 2.3%.

In the case of `O=C(C=Cc1ccccc1)Nc1cc[n+](Cc2ccccc2)cc1.[Br-]` [Compound 5a, 1-Benzyl-4-cinnamamidopyridin-1-ium bromide], the IC50 (AChE (from electric eel)) is reported as 0.0541 ± 0.0082 µM, the IC50 ([1]; IC50 eqBuChE) is reported as 6.3 ± 0.6 µM and the “ABTS assay (trolox equiv)” value is reported as “N^c (N means <0.05)”. It also gave an inhibition at 20 µM (Aβ (1–42) [2]) of 46.3 ± 1.6%.

In the case of `COc1ccc(/C=C/C(=O)Nc2cc[n+](Cc3ccc(C)cc3)cc2)cc1OC.[Br-]` [Compound 5j, (E)-4-(3-(3,4-dimethoxyphenyl)acrylamido)-1-(4-methylbenzyl) pyridin-1-ium bromide], the IC50 (AChE (from electric eel)) is reported as 0.0907 ± 0.0032 µM, the IC50 ([1]; IC50 eqBuChE) is reported as 3.8 ± 0.9 µM and the IC50 (human AChE) is reported as 0.0965 ± 0.0028 µM. For the same compound, the “ABTS assay (trolox equiv)” value was “N (N means <0.05)” and the inhibition at 20 µM (Aβ (1–42) [2]) was 63.4 ± 2.8%.

With `O=C(C=Cc1ccccc1)Nc1cc[n+](Cc2cccc(F)c2)cc1.[Br-]` [Compound 5d, 4-Cinnamamido-1-(3-fluorobenzyl) pyridin-1-ium bromide] the IC50 (AChE (from electric eel)) was 0.0935 ± 0.0077 µM, the IC50 ([1]; IC50 eqBuChE) was 7.4 ± 0.5 µM and the “ABTS assay (trolox equiv)” value was “N (N means <0.05)”. For the same compound, the inhibition at 20 µM (Aβ (1–42) [2]) was 53.6 ± 2.3%.

With `O=C(C=Cc1ccccc1)Nc1cc[n+](Cc2ccc(Br)cc2)cc1.[Br-]` [Compound 5g, 1-(4-Bromobenzyl)-4-cinnamamidopyridin-1-ium bromide] the IC50 (AChE (from electric eel)) was 1.451 ± 0.0043 µM, the IC50 ([1]; IC50 eqBuChE) was 2.1 ± 0.8 µM and the “ABTS assay (trolox equiv)” value was “N (N means <0.05)”. It also gave an inhibition at 20 µM (Aβ (1–42) [2]) of 57.2 ± 1.1%.

In the case of `O=C(O)/C=C/c1ccccc1` [Cinnamic acid, reference compound], the IC50 ([1]; read-out: IC50 eqBuChE) is reported as greater than 100 µM.

In the case of `Cc1ccc(C[n+]2ccc(NC(=O)C=Cc3ccccc3)cc2)cc1.[Br-]` [Compound 5c, 4-Cinnamamido-1-(4-methylbenzyl) pyridin-1-ium bromide], the IC50 (AChE (from electric eel)) is reported as 1.2638 ± 0.0012 µM, the IC50 ([1]; IC50 eqBuChE) is reported as 25 ± 0.7 µM and the “ABTS assay (trolox equiv)” value is reported as “N (N means <0.05)”. It also gave an inhibition at 20 µM (Aβ (1–42) [2]) of 55.1 ± 1.5%.

For `Cc1cccc(C[n+]2ccc(NC(=O)C=Cc3ccccc3)cc2)c1.[Br-]` [Compound 5b, 4-Cinnamamido-1-(3-methylbenzyl) pyridin-1-ium bromide], the IC50 (AChE (from electric eel)) was 0.103 ± 0.0096 µM, the IC50 ([1]; IC50 eqBuChE) was 8.1 ± 1.3 µM and the “ABTS assay (trolox equiv)” value was “N (N means <0.05)”. The inhibition at 20 µM (Aβ (1–42) [2]) was 48.5 ± 1.8%.

Compound `Oc1c(I)cc(Cl)c2cccnc12` [CQ, Clioquinol, reference compound] has an inhibition at 50 µM (Aβ (1–42) [3]) of 60.2%.

With `COc1ccc(/C=C/C(=O)Nc2cc[n+](Cc3ccccc3)cc2)cc1OC.[Br-]` [Compound 5h, (E)-1-benzyl-4-(3-(3,4-dimethoxyphenyl)acrylamido) pyridin-1-ium bromide] the IC50 (AChE (from electric eel)) was 0.135 ± 0.0048 µM, the IC50 ([1]; IC50 eqBuChE) was 4.5 ± 0.7 µM and the “ABTS assay (trolox equiv)” value was “N (N means <0.05)”. It also gave an inhibition at 20 µM (Aβ (1–42) [2]) of 55.7 ± 3.2%.

With `CC(=O)[C@H]1CC[C@H]2[C@@H]3CCC4=CC(=O)CC[C@]4(C)[C@H]3CC[C@]12C` [Progesterone, reference compound] the Papp at 16 h (in vitro) was 5.34 ×10⁻⁶ cm/s.

In the case of `COc1ccc(/C=C/C(=O)Nc2cc[n+](Cc3ccc(Br)cc3)cc2)cc1OC.[Br-]` [Compound 5n, (E)-1-(4-bromobenzyl)-4-(3-(3,4-dimethoxyphenyl)acrylamido) pyridin-1-ium bromide], the IC50 (AChE (from electric eel)) is reported as 0.0503 ± 0.0083 µM, the IC50 ([1]; IC50 eqBuChE) is reported as 1.9 ± 0.5 µM and the “Times more potent against BuChE than donepezil” value ([1]; eqBuChE IC50 compared with donepezil) is reported as 2.3 times. For the same compound, the IC50 (human AChE) was 0.0511 ± 0.0048 µM, the “ABTS assay (trolox equiv)” value was “N (N means <0.05)” and the inhibition at 20 µM (Aβ (1–42) [2]) was 66.3 ± 2.9%.
